Reference: US20250320397A1, “NON-PFAS REFRIGERANTS AND METHODS OF COOLING ELECTRONICS” (Honeywell International Inc., priority 2024, published 2025)

Key:
[1] = Boiling point determination (Example 2); type: physicochemical; details: for Bp: Table 3, approximate physical properties; for BP: Table 5
Description: (§1) The boiling point (“BP”) of HFO-1336pyy and HFO-1336eyc were determined and the results are reported below in Table 5. The dielectric constant (“Dk”) of HFO-1336pyy and HFO-1336eyc(E) were measured, whereas the Dk of HFO*1336eyc (Z) was calculated using the Kirkwood model as described in Harvey, A. H. and Lemmon, E. W., International Journal of Thermophysics, Vol. 26, No. 1, 2005. The measured dielectric property were determined using the Agilent 85070 Dielectric Probe. All measurements were made at ambient pressure and room temperature (approximately 23° C.). Prior to making measurements, the system was calibrated from 1 GHz to 20 GHz with an open circuit, a short circuit, and DI water (@22.4° C.) standard. The accuracy of the probe is given as: Dielectric constant, er′=er′+/−0.05|er*| with er″=er″+/−0.05|er*| and (loss=er″/er′).

[2] = Dielectric constant measured with Agilent 85070 Dielectric Probe (Example 2); type: physicochemical; details: ambient pressure, room temperature (approximately 23° C.); for Dielectric Constant (Dk): Table 3; for Dk: Table 5, probe calibrated 1 GHz to 20 GHz
Description: “Dielectric Constant” means the dielectric constant as measured in accordance with ASTM D150-11 statically and at room temperature.
as §1

[3] = Text: This is experimentally determined where a liquid spill is simulated by pouring the liquid of interest into a watch glass. The flammability of, primarily, a single component or a blend is characterized throughout the evaporation of the puddle to dryness. […] The watch glass test is a conservative test because no external heat is applied to the watch glass, which is chilled by the evaporating solvent. The cold watch glass acts as a condenser for the vapors of higher boiling point blend components. In the case where a flammable component is high boiling, its concentration increases throughout the evaporation time, rendering the mixture more flammable than it would be under temperature-controlled blend segregation experiments.
This was experimentally determined where a liquid spill was simulated by pouring HFO-1336pyy(Z) into a watch glass. The flammability was characterized throughout the evaporation of the puddle to dryness.

SMILES | Bp [1] [°C] | BP [1] [°C] | Dielectric Constant (Dk) [2] | Dk [2] | flammability (flame on open flame passed across liquid surface) [3]
F/C=C(/F)C(F)(F)C(F)F [Compound 4, (E)-1,2,3,3,4,4-hexafluorobut-1-ene] | 45.3 | 45.3 | 5.09 | 5.09 | no flame was observed
F/C=C(\F)C(F)(F)C(F)F [Compound 3, (Z)-1,2,3,3,4,4-hexafluorobut-1-ene] | 40.4 | 40.4 |  |  | no flame is observed
F/C(=C(/F)C(F)F)C(F)F [Compound 2, (E)-1,1,2,3,4,4-hexafluorobut-2-ene] | 51.7 | 51.7 | 4.34 | 4.34 | no flame was observed
F/C(=C(\F)C(F)F)C(F)F [Compound 1, (Z)-1,1,2,3,4,4-hexafluorobut-2-ene] | 58.2 | 58.2 | 6.72 | 6.72 | 
